# Laboratory results from article PMC6920844, “Mechanism of Action and Interactions between Thyroid Peroxidase and Lipoxygenase Inhibitors Derived from Plant Sources” (Biomolecules, 2019).
# Marks after values point to notes of the source that are not given here.
# Key:
# thyroid peroxidase (TPO) = target: T1, thyroid peroxidase (TPO) (Sus scrofa, UniProt P09933); test: Thyroid peroxidase inhibitory assay (guaiacol assay, Lineweaver–Burk plot); details: for EFC50 (effective concentration inhibiting TPO in 50%) / Ki (TPO) / Vmax (TPO) / Mode of Inhibition (TPO): pure polyphenol solutions; for Mode of Inhibition (TPO): Lineweaver–Burk
# T1 sequence (P09933 15-926): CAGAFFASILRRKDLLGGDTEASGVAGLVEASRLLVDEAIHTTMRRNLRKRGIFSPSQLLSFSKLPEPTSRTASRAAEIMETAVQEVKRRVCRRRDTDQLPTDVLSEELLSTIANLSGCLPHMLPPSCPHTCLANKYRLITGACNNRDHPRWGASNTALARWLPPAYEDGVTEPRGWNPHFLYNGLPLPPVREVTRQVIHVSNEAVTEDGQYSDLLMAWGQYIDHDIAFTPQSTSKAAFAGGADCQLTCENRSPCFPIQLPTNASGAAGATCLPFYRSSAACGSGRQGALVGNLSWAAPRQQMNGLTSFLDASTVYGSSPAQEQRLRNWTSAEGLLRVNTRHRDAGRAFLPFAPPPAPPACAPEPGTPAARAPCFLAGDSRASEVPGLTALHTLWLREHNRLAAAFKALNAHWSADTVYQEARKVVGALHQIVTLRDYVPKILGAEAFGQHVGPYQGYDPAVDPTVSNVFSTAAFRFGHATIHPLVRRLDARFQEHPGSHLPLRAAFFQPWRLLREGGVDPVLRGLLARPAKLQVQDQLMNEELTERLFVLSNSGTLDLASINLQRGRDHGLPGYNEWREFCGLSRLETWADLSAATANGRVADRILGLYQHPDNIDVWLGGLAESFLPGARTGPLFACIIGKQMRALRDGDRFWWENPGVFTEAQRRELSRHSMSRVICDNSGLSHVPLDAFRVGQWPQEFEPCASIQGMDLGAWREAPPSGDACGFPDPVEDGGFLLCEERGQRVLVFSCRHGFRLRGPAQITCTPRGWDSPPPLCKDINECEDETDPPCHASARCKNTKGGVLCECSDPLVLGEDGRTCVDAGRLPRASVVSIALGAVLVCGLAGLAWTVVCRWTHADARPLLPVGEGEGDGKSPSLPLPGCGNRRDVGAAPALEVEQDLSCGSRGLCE
# [1] = ABTS radical scavenging activity (in vitro antioxidant capacity assay)
# [2] = pure polyphenols, values in text
EFC50 (effective concentration inhibiting TPO in 50%) (thyroid peroxidase (TPO)),Ki (TPO) (thyroid peroxidase (TPO)),Vmax (TPO) (thyroid peroxidase (TPO)),Mode of Inhibition (TPO) (thyroid peroxidase (TPO)),"ABTS radical scavenging ability IC50 [1, 2] [µg/mL]",IC50 (thyroid peroxidase (TPO)) [µM],Ki (thyroid peroxidase (TPO)) [µM],ABTS radical scavenging ability IC50 ([1]; pure chemical standards),SMILES
25.42 ± 1.13 ^a µg/mL,45.92 ± 3.22 ^b µg/mL,149.25 ± 6.26 ^a ΔAU/min,Competitive,84.33,,,,"COc1cc(C=CC(=O)O)cc(OC)c1O (stereo in doubt) [Sinapinic acid, sinapinic acid]"
,,149.25 ± 5.12 ^a ΔAU/min,Uncompetitive,405.93,430,1250,0.406 ± 0.003 ^c mg/mL,"O=c1cc(-c2ccc(O)cc2)oc2cc(O)cc(O)c12 [Apigenin, apigenin]"
29.76 ± 2.05 ^b µg/mL,33.42 ± 1.35 ^a µg/mL,144.93 ± 4.33 ^a ΔAU/min,Competitive,78.37,,,0.078 ± 0.008 ^a mg/mL,"O.Oc1cc(O)c2c(c1)O[C@H](c1ccc(O)c(O)c1)[C@@H](O)C2 [Catechin, catechin]"
,,192.31 ± 8.34 ^b ΔAU/min,Competitive,,215,653,0.337 ± 0.002 ^b mg/mL,"O=c1c(O)c(-c2ccc(O)cc2)oc2cc(O)cc(O)c12 [Kaempferol, kaempferol]"
